In US20240199546A1, “INHIBITORS OF SOLUTE CARRIER FAMILY 6A MEMBER 19 (SLC6A19) AND METHODS OF USE THEREOF” (Maze Therapeutics, Inc., priority 2022, published 2024) one finds IC50 data, which are given here for 29 compounds.

Molecules are shown by their SMILES. pIC50: −log10 of the molar value.

In this experiment the target is T1, human SLC6A19 and TMEM27 (Homo sapiens, UniProt Q695T7).
T1 construct: expressed in transfected cells
T1 sequence (Q695T7 1-634): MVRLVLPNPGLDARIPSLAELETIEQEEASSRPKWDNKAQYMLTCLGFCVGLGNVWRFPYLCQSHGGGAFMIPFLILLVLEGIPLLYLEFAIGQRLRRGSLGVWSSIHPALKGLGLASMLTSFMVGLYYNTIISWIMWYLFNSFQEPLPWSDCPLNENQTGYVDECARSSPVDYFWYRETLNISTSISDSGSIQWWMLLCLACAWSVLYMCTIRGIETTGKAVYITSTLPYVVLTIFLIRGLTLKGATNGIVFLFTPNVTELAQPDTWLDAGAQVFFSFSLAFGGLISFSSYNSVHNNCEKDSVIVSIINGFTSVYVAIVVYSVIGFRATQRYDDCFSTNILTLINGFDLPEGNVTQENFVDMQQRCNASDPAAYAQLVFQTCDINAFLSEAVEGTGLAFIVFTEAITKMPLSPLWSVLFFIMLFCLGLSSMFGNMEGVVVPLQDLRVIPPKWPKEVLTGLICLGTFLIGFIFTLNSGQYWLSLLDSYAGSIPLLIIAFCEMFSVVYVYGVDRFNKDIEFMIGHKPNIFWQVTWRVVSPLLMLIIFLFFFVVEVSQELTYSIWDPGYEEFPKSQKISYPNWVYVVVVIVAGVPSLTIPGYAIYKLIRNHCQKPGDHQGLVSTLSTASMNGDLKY
T1 sequence (Q9HBJ8 15-222 partner): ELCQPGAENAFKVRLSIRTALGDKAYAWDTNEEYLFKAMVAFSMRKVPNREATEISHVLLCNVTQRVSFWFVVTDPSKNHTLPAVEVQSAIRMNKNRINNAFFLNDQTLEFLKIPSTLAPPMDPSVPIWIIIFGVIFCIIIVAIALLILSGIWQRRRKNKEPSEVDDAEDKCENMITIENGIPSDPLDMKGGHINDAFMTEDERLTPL
Briefly: Radiolabelled (3H) leucine uptake in CHO cells with doxycycline-inducible expression of human SLC6A19 and TMEM27 (Example B-1). Particulars: CHO cells with doxycycline-inducible expression of human SLC6A19 and TMEM27, read-out: SLC6A19_Radioligand Uptake Assay IC50. It is filed as cell-based. The method, boiled down: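 CHO cells were induced with doxycycline for 18 h at 37 °C, washed in HBSS, then exposed to compounds for 1 h: 8-point, 3-fold dilutions in duplicate, 0.5% DMSO final. Uptake measured by scintillation counting after 2 h shaking. Activity normalized with positive control as 0% and DMSO as 100%.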
For the compound `Cc1cc(COc2cc3[nH]c(CNC(=O)[C@H]4C[C@H]4F)cc3cc2Cl)on1` [Compound 539, (1R,2R)-N-((5-chloro-6-((3-methylisoxazol-5-yl)methoxy)-1H-indol-2-yl)methyl)-2-fluorocyclopropane-1-carboxamide], the pIC50 is 6.91.
As for `O=C(NCc1cc2cc(F)c(OCc3ccon3)cc2[nH]1)N1CCCC1` [Compound 116, N-((5-fluoro-6-(isoxazol-3-ylmethoxy)-1H-indol-2-yl)methyl)pyrrolidine-1-carboxamide], the pIC50 was 6.80.
As to `Cc1cc(COc2cc3[nH]c(CNC(=O)C4(C(F)F)CC4)cc3cc2Cl)on1` [Compound 565, N-((5-chloro-6-((3-methylisoxazol-5-yl)methoxy)-1H-indol-2-yl)methyl)-1-(difluoromethyl)cyclopropane-1-carboxamide], the pIC50 was 6.54.
Then `Cc1cc(COc2cc3[nH]c(CNC(=O)N4CCCC4C(F)F)cc3cc2Cl)on1` (racemic) [Compound 375, (S)-N-((5-chloro-6-((3-methylisoxazol-5-yl)methoxy)-1H-indol-2-yl)methyl)-2-(difluoromethyl)pyrrolidine-1-carboxamide and (R)-N-((5-chloro-6-((3-methylisoxazol-5-yl)methoxy)-1H-indol-2-yl)methyl)-2-(difluoromethyl)pyrrolidine-1-carboxamide], with 6.02.
As to `CC1(C(=O)NCc2cc3cc(Cl)c(OCCc4cccnc4)cc3[nH]2)CC1` [Compound 331, N-((5-chloro-6-(2-(pyridin-3-yl)ethoxy)-1H-indol-2-yl)methyl)-1-methylcyclopropane-1-carboxamide], the pIC50 was 6.34.
On to `[2H]C([2H])([2H])C(=O)NCc1cc2cc(Cl)c(OCc3cc(C)no3)cc2[nH]1` [Compound 562, N-((5-chloro-6-((3-methylisoxazol-5-yl)methoxy)-1H-indol-2-yl)methyl)acetamide-2,2,2-d3], for which the pIC50 is 7.08.
For the compound `Cc1cc(COc2cc(F)c3cc(CNC(=O)N4CCC4)[nH]c3c2)on1` [Compound 427, N-((4-fluoro-6-((3-methylisoxazol-5-yl)methoxy)-1H-indol-2-yl)methyl)azetidine-1-carboxamide], the pIC50 is 6.20.
Then `Cc1cc(COc2cc3[nH]c(CNC(=O)[C@@H]4CCCN4C)cc3cc2Cl)on1` [Compound 577, (S)-N-((5-chloro-6-((3-methylisoxazol-5-yl)methoxy)-1H-indol-2-yl)methyl)-1-methylpyrrolidine-2-carboxamide], with 5.84.
As for `CC(=O)NCc1cc2ccc(OCc3cc(C)no3)cc2[nH]1` [Compound 349, N-((6-((3-methylisoxazol-5-yl)methoxy)-1H-indol-2-yl)methyl)acetamide], the pIC50 is 5.53.
For `COCCNC(=O)NCc1cc2cc(Cl)c(OCc3cscn3)cc2[nH]1` [Compound 380, 1-((5-chloro-6-(thiazol-4-ylmethoxy)-1H-indol-2-yl)methyl)-3-(2-methoxyethyl)urea], the pIC50 is 5.95.
In the case of `Cc1cc(COc2cc3[nH]c(CNC(=O)[C@H]4CC[C@@H]4O)cc3cc2Cl)on1` (racemic) [Compound 248, (1R,2R)-N-((5-chloro-6-((3-methylisoxazol-5-yl)methoxy)-1H-indol-2-yl)methyl)-2-hydroxycyclobutane-1-carboxamide and (1S,2S)-N-((5-chloro-6-((3-methylisoxazol-5-yl)methoxy)-1H-indol-2-yl)methyl)-2-hydroxycyclobutane-1-carboxamide], the pIC50 is 6.20.
Regarding `Cc1cc(COc2cc3[nH]c(CNC(=O)C4(C)CC4)cc3cc2F)no1` [Compound 329, N-((5-fluoro-6-((5-methylisoxazol-3-yl)methoxy)-1H-indol-2-yl)methyl)-1-methylcyclopropane-1-carboxamide], the pIC50 was 6.78.
Take `O=C(NCc1cc2cc(F)c(OCc3ccon3)cc2[nH]1)N1CCCCC1` [Compound 88, N-((5-fluoro-6-(isoxazol-3-ylmethoxy)-1H-indol-2-yl)methyl)piperidine-1-carboxamide]: the pIC50 was 6.32.
With `CC(=O)NCc1cc2cc(Cl)c(OCCC3CCCO3)cc2[nH]1` (centres unmarked) [Compound 455, N-((5-chloro-6-(2-(tetrahydrofuran-2-yl)ethoxy)-1H-indol-2-yl)methyl)acetamide], the pIC50 was 5.45.
Turning to `CC(F)C(=O)NCc1cc2cc(Cl)c(OCc3cscn3)cc2[nH]1` (single isomer, unassigned) [Compound 444, (R or S)-N-((5-chloro-6-(thiazol-4-ylmethoxy)-1H-indol-2-yl)methyl)-2-fluoropropanamide], the pIC50 was 7.11.
Regarding `CC1(C(=O)NCc2cc3cc(C4(F)CC4)c(OCc4ccon4)cc3[nH]2)CC1` [Compound 655, N-((5-(1-fluorocyclopropyl)-6-(isoxazol-3-ylmethoxy)-1H-indol-2-yl)methyl)-1-methylcyclopropane-1-carboxamide], the pIC50 was less than 5.14.
For `Cc1cc(COc2cc3[nH]c(CNC(=O)C4CCO4)cc3cc2Cl)on1` (centres unmarked) [Compound 278, N-((5-chloro-6-((3-methylisoxazol-5-yl)methoxy)-1H-indol-2-yl)methyl)oxetane-2-carboxamide], the pIC50 is 6.97.
With `CNC(=O)NCc1cc2cc(Cl)c(OCc3cc(C)on3)cc2[nH]1` [Compound 213, 1-((5-chloro-6-((5-methylisoxazol-3-yl)methoxy)-1H-indol-2-yl)methyl)-3-methylurea], the pIC50 was 6.72.
On to `CC1(C(=O)NCc2cc3cc(CCC#N)c(OCc4cscn4)cc3[nH]2)CC1` [Compound 641, N-((5-(2-cyanoethyl)-6-(thiazol-4-ylmethoxy)-1H-indol-2-yl)methyl)-1-methylcyclopropane-1-carboxamide], for which the pIC50 was 5.68.
As to `Cc1cc(COc2cc3[nH]c(CNC(=O)C45CC(CO4)C5)cc3cc2Cl)on1` [Compound 301, N-((5-chloro-6-((3-methylisoxazol-5-yl)methoxy)-1H-indol-2-yl)methyl)-2-oxabicyclo[2.1.1]hexane-1-carboxamide], the pIC50 is 6.49.
Turning to `[2H]C([2H])([2H])C1(C(=O)NCc2cc3cc(F)c(OCc4cscn4)cc3[nH]2)CC1` [Compound 482, N-((5-fluoro-6-(thiazol-4-ylmethoxy)-1H-indol-2-yl)methyl)-1-(methyl-d3)cyclopropane-1-carboxamide], the negative-log IC50 (pIC50) was 6.83.
Consider `O=C(CC(F)F)NCc1cc2cc(F)c(OCc3cscn3)cc2[nH]1` [Compound 516, 3,3-difluoro-N-((5-fluoro-6-(thiazol-4-ylmethoxy)-1H-indol-2-yl)methyl)propanamide], for which the pIC50 is 7.05.
Turning to `Cc1cc(COc2cc3[nH]c(CNC(=O)C4(C)CC4)cc3cc2Cl)sn1` [Compound 398, N-((5-chloro-6-((3-methylisothiazol-5-yl)methoxy)-1H-indol-2-yl)methyl)-1-methylcyclopropane-1-carboxamide], the pIC50 is 6.22.
As for `Cc1cc(COc2cc3[nH]c(CNC(=O)[C@H](C)O)cc3cc2F)on1` [Compound 239, (S)-N-((5-fluoro-6-((3-methylisoxazol-5-yl)methoxy)-1H-indol-2-yl)methyl)-2-hydroxypropanamide], the pIC50 is 5.23.
In the case of `O=C(NCc1cc2cc(OC(F)(F)F)c(OCc3cocn3)cc2[nH]1)N1CCC1` [Compound 480, N-((6-(oxazol-4-ylmethoxy)-5-(trifluoromethoxy)-1H-indol-2-yl)methyl)azetidine-1-carboxamide], the pIC50 is 6.43.
Then `O=C(NCc1cc2cc(Cl)c(OCc3cscn3)cc2[nH]1)C1CCCC1` [Compound 489, N-((5-chloro-6-(thiazol-4-ylmethoxy)-1H-indol-2-yl)methyl)cyclopentanecarboxamide], with 6.49; and `Cc1cc(COc2cc3[nH]c(CNC(=O)[C@H]4CCCO4)cc3cc2Cl)on1` [Compound 311, (R)-N-((5-chloro-6-((3-methylisoxazol-5-yl)methoxy)-1H-indol-2-yl)methyl)tetrahydrofuran-2-carboxamide], with 6.89.
Take `CC(NC(=O)C1(C)CC1)c1cc2cc(Cl)c(OCc3ccon3)cc2[nH]1` (racemic) [Compound 395, (S)-N-(1-(5-chloro-6-(isoxazol-3-ylmethoxy)-1H-indol-2-yl)ethyl)-1-methylcyclopropane-1-carboxamide and (R)-N-(1-(5-chloro-6-(isoxazol-3-ylmethoxy)-1H-indol-2-yl)ethyl)-1-methylcyclopropane-1-carboxamide]: the pIC50 was 5.67.
On to `CC1(C(=O)NCc2cc3c(F)c(F)c(OCc4cscn4)cc3[nH]2)CC1` [Compound 526, N-((4,5-difluoro-6-(thiazol-4-ylmethoxy)-1H-indol-2-yl)methyl)-1-methylcyclopropane-1-carboxamide], for which the pIC50 was 6.81.

By pIC50 is commonly meant the IC50 on a negative log10 scale, so that one unit is a factor of ten.
